Entries after “also recorded” stand apart in the source; their conditions may differ.
Key:
Format in all cases: cell-based
SW837 cells = experiment: Label-free determination of cell proliferation, SW837 confluency, AMG510 (Example 8); settings: for cell proliferation (SW837 confluency), drug alone: SW837 (KRAS G12C), 49 days, single drug: 1 μM Compound A, 0.2 μM Compound C, 0.2 μM CCS1477, 1 μM FT-6876, 0.2 μM GNE-781, 100 nM AMG510; for development of drug resistance / re-growth, combined with AMG510: CBP/p300 bromodomain inhibitor combined with 100 nM AMG510
Experimental: 2000 SW837 cells [ATCC; CCL-235, a CRC (rectal adenocarcinoma) cell line carrying a KRAS G12C mutation], were seeded into 96 well plates (Greiner BioOne 655090) one day prior to drug treatment in RPMI medium containing 10% FCS and 2 mM L-Glutamine. The next day, the wells were imaged label-free using brightfield imaging on a CELIGO Image Cytometer to determine the initial cell confluency. […] Plates were regularly imaged over weeks using brightfield mode (CELIGO Imaging Cytometer) to track cell confluency in each well over time. Growth medium and treatments were replenished twice weekly. […] Confluency was determined using CELIGO software's built-in “confluence” analysis tool in the brightfield mode.

SNU-1411 cells [1] = experiment: Label-free determination of cell proliferation, SNU-1411 confluency, AMG510 (Example 6); settings: for cell proliferation (SNU-1411 confluency), drug alone: SNU-1411 (KRAS G12C), 32 days, single drug: 1 μM Compound A, 0.2 μM Compound C, 0.2 μM CCS1477, 1 μM FT-6876, 0.2 μM GNE-781, 300 nM AMG510; for development of drug resistance / re-growth, combined with AMG510: CBP/p300 bromodomain inhibitor combined with 300 nM AMG510
Experimental: (§1) 2000 SNU-1411 cells [KCLB; 01411, a CRC (rectal adenocarcinoma) cell line carrying a KRAS G12C mutation], were seeded into 96 well plates (Greiner BioOne 655090) one day prior to drug treatment in RPMI medium containing 10% FCS and 2 mM L-Glutamine. The next day, the wells were imaged label-free using brightfield imaging on a CELIGO Image Cytometer to determine the initial cell confluency. […] Plates were regularly imaged over weeks using brightfield mode (CELIGO Imaging Cytometer) to track cell confluency in each well over time. Growth medium and treatments were replenished twice weekly. […] Confluency was determined using CELIGO software's built-in “confluence” analysis tool in the brightfield mode.

NCI-H358 cells = experiment: Label-free determination of cell proliferation, NCI-H358 cell number, AMG510 (Example 9)
Experimental: 2000 NCI-H358 cells [KCLB; 25807; a non-small cell lung cancer (NSCLC) cell line with KRAS G12C mutation] were seeded into 96 well plates (Greiner BioOne 655090) one day prior to drug treatment in RPMI medium containing 10% FCS and 2 mM L-Glutamine. The next day, the wells were imaged label-free using brightfield imaging on a CELIGO ImageCytometer to determine the initial cell number. […] The cells were regularly imaged over weeks using brightfield mode (CELIGO Imaging Cytometer) to track cell proliferation in each well over time. Growth medium and treatments were replenished twice weekly. […] Cell numbers were determined using CELIGO software's built-in “direct cell counting” analysis tool in the brightfield mode.

SNU-1411 cells [2] = experiment: Label-free determination of cell proliferation, SNU-1411 confluency, MRTX849 (Example 7); settings: for cell proliferation (SNU-1411 confluency), drug alone: SNU-1411 (KRAS G12C), 32 days, single drug: 1 μM Compound A, 0.2 μM Compound C, 0.2 μM CCS1477, 1 μM FT-6876, 0.2 μM GNE-781, 300 nM MRTX849; for development of drug resistance / re-growth, combined with MRTX849: SNU-1411, 32 days, CBP/p300 bromodomain inhibitor combined with 300 nM MRTX849
Experimental: as §1

| SMILES | cell proliferation (SW837 confluency), drug alone (SW837 cells) | re-growth in long-term culture, AMG510 alone (SW837 cells; SW837, 49 days, 100 nM AMG510 alone) | cell proliferation (SNU-1411 confluency), drug alone (SNU-1411 cells [1]) | re-growth in long-term culture, AMG510 alone (SNU-1411 cells [1]; SNU-1411, 32 days, 300 nM AMG510 alone) | cell proliferation (NCI-H358 cell number), drug alone (NCI-H358 cells; NCI-H358 (KRAS G12C), >20 days, single drug: 1 μM Compound A, 200 nM Compound C, 100 nM AMG510) | re-growth in long-term culture, AMG510 alone (NCI-H358 cells; NCI-H358, >20 days, 100 nM AMG510 alone) | development of drug resistance / re-growth, combined with AMG510 (SW837 cells; SW837, 49 days) | development of drug resistance / re-growth, combined with AMG510 (SNU-1411 cells [1]; SNU-1411, 32 days) | cell proliferation (SNU-1411 confluency), drug alone (SNU-1411 cells [2]) | development of drug resistance / re-growth, combined with MRTX849 (SNU-1411 cells [2]) | development of drug resistance / re-growth, combined with AMG510 (NCI-H358 cells; NCI-H358, >20 days, 1 μM Compound A or 200 nM Compound C combined with 100 nM AMG510) |
| --- | --- | --- | --- | --- | --- | --- | --- | --- | --- | --- | --- |
| C=CC(=O)N1CCN(c2nc(=O)n(-c3c(C)ccnc3C(C)C)c3nc(-c4c(O)cccc4F)c(F)cc23)[C@@H](C)C1 [AMG510] | initially prevented cell proliferation | re-grew | delayed cell proliferation initially for few days | re-grew | initially completely blocked cell proliferation | re-grew | – | – | – | – | – |
| CO[C@H]1CC[C@H](n2c([C@@H]3CCCC(=O)N3c3ccc(F)c(F)c3)nc3cc(-c4c(C)noc4C)ccc32)CC1 [CCS1477] | do not affect cell proliferation | – | do not affect cell proliferation | – | – | – | prevent the development of drug resistance | prevent the development of drug resistance | do not affect cell proliferation | prevent the development of drug resistance | – |
| CC(=O)N1C[C@H](c2nc(Nc3cccc(-c4cn(C)nn4)c3)cc(-c3cnccn3)n2)CC[C@@H]1C [Compound C, 1-((2S,5R)-2-methyl-5-(4-((3-(1-methyl-1H-1,2,3-triazol-4-yl)phenyl)amino)-6-(pyrazin-2-yl)pyrimidin-2-yl)piperidin-1-yl)ethan-1-one] | – | – | – | – | – | – | prevent the development of drug resistance | prevent the development of drug resistance | – | prevent the development of drug resistance | prevent the development of drug resistance; also recorded: completely prevented re-growth |
| COC(=O)N1c2ccc3c(nc(Cc4ccccc4)n3[C@H]3CCC[C@H](C(=O)O)C3)c2CC[C@@H]1C [FT-6876] | do not affect cell proliferation | – | do not affect cell proliferation | – | – | – | prevent the development of drug resistance | prevent the development of drug resistance | do not affect cell proliferation | prevent the development of drug resistance | – |
| CNC(=O)N1CCc2c(c(N3CCCc4cc(-c5cnn(C)c5)c(C(F)F)cc43)nn2C2CCOCC2)C1 [GNE-781] | do not affect cell proliferation | – | do not affect cell proliferation | – | – | – | prevent the development of drug resistance | prevent the development of drug resistance | do not affect cell proliferation | prevent the development of drug resistance | – |

Reference: patent US12472179B2, “Combination of a CBP/p300 bromodomain inhibitor and a KRAS inhibitor for the treatment of cancer” (TOLREMO THERAPEUTICS AG, priority 2020, dated 2025)
